Structures are written as SMILES.

These results are taken from patent publication US8853412B2, “Pyrrolidinone derivatives as GPR119 modulators for the treatment of diabetes, obesity, dyslipidemia and related disorders” (Sanofi, priority 2012, dated 2014).

This assay addresses T1, human GPR119 (Homo sapiens, UniProt Q8TDV5).
T1 construct: expressed in transfected cells; host or cells: HEK-293 cell line stably expressing recombinant GPR119
T1 sequence (Q8TDV5 1-335): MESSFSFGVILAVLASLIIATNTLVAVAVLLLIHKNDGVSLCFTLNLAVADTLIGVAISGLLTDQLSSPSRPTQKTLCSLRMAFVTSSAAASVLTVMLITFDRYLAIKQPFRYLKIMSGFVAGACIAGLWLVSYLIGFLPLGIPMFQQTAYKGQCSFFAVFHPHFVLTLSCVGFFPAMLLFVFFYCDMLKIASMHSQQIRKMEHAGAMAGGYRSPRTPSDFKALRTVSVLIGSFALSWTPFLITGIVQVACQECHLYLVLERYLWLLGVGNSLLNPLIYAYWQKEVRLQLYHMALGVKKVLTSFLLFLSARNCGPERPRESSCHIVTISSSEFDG
In words: Functional cellular assay measuring GPR119-mediated cAMP release (HTRF), HEK-293 cells stably expressing recombinant GPR119. Type of assay: cell-based. As to conditions: cell line expressing human GPR119; cAMP response, 30 minutes at room temperature. Here is the method:
Functional Cellular Assays Measuring GPR119-Mediated cAMP Release.
Compounds of the invention, which are agonists of GPR119, were characterized by functional assays measuring the cAMP response of HEK-293 cell lines stably expressing recombinant GPR119 from man, mouse or rat, or by using a hamster cell line HIT-T15 expressing GPR119 endogenously. The cAMP content was determined using a kit based on homogenous time-resolved fluorescence (HTRF) from Cisbio Corp. (cat. no. 62AM4PEC). For preparation, cells were split into T175 culture flasks and grown to near confluency in medium (DMEM/10% FCS for HEK-293 cells, and F-12K medium/10% horse serum/2.5% FCS for HIT-T15 cells, respectively). Medium was then removed and cells washed with PBS lacking calcium and magnesium ions, followed by proteinase treatment with accutase (Sigma-Aldrich, cat. no. A6964). Detached cells were washed and resuspended in assay buffer (1×HBSS; 20 mM HEPES, 0.1% BSA, 2 mM IBMX) and cellular density determined. They were then diluted to 400000 cells/mL and 25 μL-aliquots dispensed to the wells of 96-well plates. For measurement, 25 μL of test compound in assay buffer was added and incubated for 30 minutes at room temperature. After addition of HTRF reagents diluted in lysis buffer, the plates were incubated for 1 hour, followed by measuring the fluorescence ratio at 665 vs. 620 nm. Potency of the agonists was quantified by determining the concentrations that caused 50% of the maximal response/activation (EC50). See Table 10 for exemplary data obtained using the cell line expressing human GPR119.
On the technique in general: TR-FRET usually uses a lanthanide donor and a delayed reading to cut background.
The term EC50 denotes the midpoint of the concentration-response curve. Take `O=C1CCc2c(F)cc(N3CC[C@@H](Oc4ccc(OCCn5ccnc5)nc4)C3=O)cc21` [Example 2-36]: the EC50 was found to be 44200 nM.
Consider `Cn1ccnc1COc1ccc(O[C@@H]2CCN(c3cc(F)c4c(c3)C(=O)CC4)C2=O)cn1` [Example 2-37], for which the EC50 came out at 24300 nM.
The value for `O=C1CC[C@H](COc2ccc(O[C@@H]3CCN(c4cc(F)c5c(c4)C(=O)CC5)C3=O)cn2)O1` [Example 2-38] was 947 nM; that for `O=C1CCc2c(F)cc(N3CC[C@@H](Oc4ccc(OCCC(F)(F)F)nc4)C3=O)cc21` [Example 2-39] was 18 nM.
The value for `CSCCCOc1ccc(O[C@@H]2CCN(c3cc(F)c4c(c3)C(=O)CC4)C2=O)cn1` [Example 2-40] was 103 nM.
The figure for `Cc1cc(COc2ccc(O[C@@H]3CCN(c4cc(F)c5c(c4)C(=O)CC5)C3=O)cn2)no1` [Example 2-41] is 360 nM; for `O=C1CCc2c(F)cc(N3CC[C@@H](Oc4ccc(OCCCO)nc4)C3=O)cc21` [Example 2-42] it is 1310 nM; for `CCOC(=O)COc1ccc(O[C@@H]2CCN(c3cc(F)c4c(c3)C(=O)CC4)C2=O)cn1` [Example 2-43] it is 62 nM.
On to `O=C1CCc2c(F)cc(N3CC[C@@H](Oc4ccc(OC(CF)CF)nc4)C3=O)cc21` [Example 2-44], for which the concentration for a half-maximal effect (EC50) is 46 nM.
The value for `CC(C)CC(C)Oc1ccc(O[C@@H]2CCN(c3cc(F)c4c(c3)C(=O)CC4)C2=O)cn1` (stereo partly drawn) [Example 2-45] was 25 nM; that for `CC(C)C(C)Oc1ccc(O[C@@H]2CCN(c3cc(F)c4c(c3)C(=O)CC4)C2=O)cn1` (stereo partly drawn) [Example 2-46] was 37 nM.
Take `CCC(COC)Oc1ccc(O[C@@H]2CCN(c3cc(F)c4c(c3)C(=O)CC4)C2=O)cn1` (stereo partly drawn) [Example 2-47]: the 50% effective concentration (EC50) is 138 nM.
On to `O=C1CCc2c(F)cc(N3CC[C@@H](Oc4ccc(OCCF)nc4)C3=O)cc21` [Example 2-48], for which the EC50 amounted to 64 nM.
The value for `CCC(Oc1ccc(O[C@@H]2CCN(c3cc(F)c4c(c3)C(=O)CC4)C2=O)cn1)C(C)C` (stereo partly drawn) [Example 2-49] was 94 nM; that for `CC(CCO)CCOc1ccc(O[C@@H]2CCN(c3cc(F)c4c(c3)C(=O)CC4)C2=O)cn1` (stereo partly drawn) [Example 2-50] was 1050 nM; that for `CCOCC(C)Oc1ccc(O[C@@H]2CCN(c3cc(F)c4c(c3)C(=O)CC4)C2=O)cn1` (stereo partly drawn) [Example 2-51] was 77 nM.
The value for `O=C1CCc2c(F)cc(N3CC[C@@H](Oc4ccc(OCc5cnccn5)nc4)C3=O)cc21` [Example 2-52] was 1190 nM; that for `CCOCCCOc1ccc(O[C@@H]2CCN(c3cc(F)c4c(c3)C(=O)CC4)C2=O)cn1` [Example 2-53] was 21 nM.
The figure for `O=C1CCc2c(F)cc(N3CC[C@@H](Oc4ccc(OCC5CCCCO5)nc4)C3=O)cc21` (stereo partly drawn) [Example 2-54] is 154 nM; for `O=C1CCc2c(F)cc(N3CC[C@@H](Oc4ccc(OCC5CCC5)nc4)C3=O)cc21` [Example 2-55] it is 7 nM; for `O=C1CCc2c(F)cc(N3CC[C@@H](Oc4ccc(OCCN5CCCC5=O)nc4)C3=O)cc21` [Example 2-56] it is 9300 nM.
As to `O=C1CCc2c(F)cc(N3CC[C@@H](Oc4ccc(OCC5CCCC5)nc4)C3=O)cc21` [Example 2-57], the EC50 came to 9 nM.
As to `CC(C)N(CCOc1ccc(O[C@@H]2CCN(c3cc(F)c4c(c3)C(=O)CC4)C2=O)cn1)C(C)C` [Example 2-58], the concentration giving a half-maximal response (EC50) worked out at 7530 nM.
`CN1CCC[C@H]1COc1ccc(O[C@@H]2CCN(c3cc(F)c4c(c3)C(=O)CC4)C2=O)cn1` [Example 2-59]: the EC50 came out at 2220 nM.
The figure for `CC1(COc2ccc(O[C@@H]3CCN(c4cc(F)c5c(c4)C(=O)CC5)C3=O)cn2)CC1` [Example 2-60] is 11 nM.
The value for `O=C1CCc2c(F)cc(N3CC[C@@H](Oc4ccc(OCCCF)nc4)C3=O)cc21` [Example 2-61] was 15 nM; that for `COC(C)(C)CCOc1ccc(O[C@@H]2CCN(c3cc(F)c4c(c3)C(=O)CC4)C2=O)cn1` [Example 2-62] was 68 nM.
The value for `O=C1CCc2c(F)cc(N3CC[C@@H](Oc4ccc(OC5CCCC5)nc4)C3=O)cc21` [Example 2-63] was 5 nM; that for `CCC(CC)Oc1ccc(O[C@@H]2CCN(c3cc(F)c4c(c3)C(=O)CC4)C2=O)cn1` [Example 2-64] was 54 nM; that for `O=C1CCc2c(F)cc(N3CC[C@@H](Oc4ccc(OCCCCCO)nc4)C3=O)cc21` [Example 2-65] was 2380 nM.
Consider `O=C1CCc2c(F)cc(N3CC[C@@H](Oc4ccc(OC5CCCCC5)nc4)C3=O)cc21` [Example 2-66], for which the EC50 amounted to 16 nM.
With `O=C1CCc2c(F)cc(N3CC[C@@H](Oc4ccc(OCCN5CCCC5)nc4)C3=O)cc21` [Example 2-67], the EC50 came out at 15000 nM.
As for `O=C1CCc2c(F)cc(N3CC[C@@H](Oc4ccc(O[C@H]5CCOC5)nc4)C3=O)cc21` [Example 2-68], the EC50 came out at 90 nM.
The figure for `CO[C@@H](C)COc1ccc(O[C@@H]2CCN(c3cc(F)c4c(c3)C(=O)CC4)C2=O)cn1` [Example 2-69] is 29 nM; for `CC(=O)N1CCCC(Oc2ccc(O[C@@H]3CCN(c4cc(F)c5c(c4)C(=O)CC5)C3=O)cn2)C1` (stereo partly drawn) [Example 2-70] it is 3010 nM.
The figure for `Cn1cc(COc2ccc(O[C@@H]3CCN(c4cc(F)c5c(c4)C(=O)CC5)C3=O)cn2)cn1` [Example 2-71] is 2500 nM; for `O=C1CCc2c(F)cc(N3CC[C@@H](Oc4ccc(OC5CCC5)nc4)C3=O)cc21` [Example 2-72] it is 16 nM.
Take `O=C1CCc2c(F)cc(N3CC[C@@H](Oc4ccc(OCC5CCCOC5)nc4)C3=O)cc21` (stereo partly drawn) [Example 2-73]: the EC50 was found to be 159 nM.
The figure for `O=C1CCc2c(F)cc(N3CC[C@@H](Oc4ccc(OC[C@H]5CCCO5)nc4)C3=O)cc21` [Example 2-74] is 84 nM; for `O=C1CCc2c(F)cc(N3CC[C@@H](Oc4ccc(OCC5CCOC5)nc4)C3=O)cc21` (stereo partly drawn) [Example 2-75] it is 95 nM.
The value for `O=C1CCc2c(F)cc(N3CC[C@@H](Oc4ccc(O[C@@H]5CCOC5)nc4)C3=O)cc21` [Example 2-76] was 94 nM; that for `O=C1CCc2c(F)cc(N3CC[C@@H](Oc4ccc(OCC(F)(F)F)nc4)C3=O)cc21` [Example 2-77] was 44 nM.
The figure for `O=C1CCc2c(F)cc(N3CC[C@@H](Oc4ccc(OC5CCCOC5)nc4)C3=O)cc21` (stereo partly drawn) [Example 2-78] is 33 nM.
Turning to `O=C1CCc2c(F)cc(N3CC[C@@H](Oc4ccc(OC5CCCOC5)nc4)C3=O)cc21` (stereo partly drawn) [Example 2-79], the EC50 is 64 nM.
As to `O=C1CCc2c(F)cc(N3CC[C@@H](Oc4ccc(OC(F)(F)F)cc4)C3=O)cc21` [Example 3-01], the EC50 worked out at 86 nM.
The figure for `CC(C)c1noc(-c2ccc(O[C@@H]3CCN(c4cc(F)c5c(c4)C(=O)CC5)C3=O)cn2)n1` [Example 3-02] is 141 nM; for `Cc1cnc(-c2ccc(O[C@@H]3CCN(c4cc(F)c5c(c4)C(=O)CC5)C3=O)cn2)s1` [Example 3-03] it is 62 nM.
The value for `O=C(OCC1CC1)c1ccc(O[C@@H]2CCN(c3cc(F)c4c(c3)C(=O)CC4)C2=O)cn1` [Example 3-04] was 138 nM; that for `O=C1CCc2c(F)cc(N3CC[C@@H](Oc4ccc(C(=O)N5CCCC5)nc4)C3=O)cc21` [Example 3-05] was 3180 nM; that for `CCCCN(C)C(=O)c1ccc(O[C@@H]2CCN(c3cc(F)c4c(c3)C(=O)CC4)C2=O)cn1` [Example 3-06] was 978 nM.
Consider `CCCCSc1ccc(O[C@@H]2CCN(c3cc(F)c4c(c3)C(=O)CC4)C2=O)cn1` [Example 3-07], for which the EC50 came to 11 nM.
The figure for `CCCC[S+]([O-])c1ccc(O[C@@H]2CCN(c3cc(F)c4c(c3)C(=O)CC4)C2=O)cn1` (stereo partly drawn) [Example 3-08] is 558 nM; for `O=C1CCc2c(F)cc(N3CC[C@@H](Oc4cnc(OCC5CC5)c(F)c4)C3=O)cc21` [Example 3-09] it is 12 nM; for `Cc1cc(O[C@@H]2CCN(c3cc(F)c4c(c3)C(=O)CC4)C2=O)cnc1OCC1CC1` [Example 3-10] it is 18 nM.
The value for `O=C1CCc2c(F)cc(N3CC[C@H](Oc4ccc(OCCC5CC5)nc4)C3=O)cc21` [Example 3-11] was 258 nM.
The value for `O=C1CCc2c(F)cc(N3CC[C@H](Oc4ccc(OCC5CC5)nc4)C3=O)cc21` [Example 3-12] was 281 nM.
In the case of `O=C1CCc2c(F)cc(N3CC[C@@H](Oc4ccc(OC5CC5)nc4)C3=O)cc21` [Example 3-13, (R)-3-(6-Cyclopropoxy-pyridin-3-yloxy)-1-(7-fluoro-3-oxo-indan-5-yl)-pyrrolidin-2-one], the EC50 was determined as 19 nM.
